{
  "source": "paper PMC7707621",
  "about": "“Oxidized Juncuenin B Analogues with Increased Antiproliferative Activity on Human Adherent Cell Lines: Semisynthesis and Biological Evaluation” (Journal of Natural Products, 2020)",
  "key": {"HeLa cells [1]": {"test_system": "HeLa cells", "test": "MTT antiproliferative assay on HeLa", "format": "cell-based, human", "conditions": "Homo sapiens, HeLa, read-out: Growth inhibition (% ± SEM), HeLa", "method": "(§1) The antiproliferative assays of the products were carried out by a standard MTT method on human breast (MCF-7, T47D), cervical (HeLa, SiHa, C33A), and ovarian (A2780) cancer cells, and NIH/3T3 mouse embryonic fibroblast cell lines. In the first step, the diastereomeric and racemic mixtures 1–11 and the starting compound, juncuenin B, were tested to obtain information about their antiproliferative activity.\n(§2) The antiproliferative activity and tumor selectivity of the compounds were measured by standard MTT assays. Tumor cell lines MCF-7, T47D, HeLa, A2780, and noncancerous NIH/3T3 were provided by European Collection of Authenticated Cell Cultures (ECACC, Salisbury, UK); cell lines SiHa and C33A by LGC Standards GmbH (Wesel, Germany). All chemicals and materials used for the antiproliferative assays were purchased from Sigma Aldrich Ltd. (Budapest, Hungary).\n(§3) Growth-inhibition properties of racemates and pure enantiomer compounds were determined by standard MTT assays on six human malignant gynecological cell lines (MCF-7, T47D, HeLa, SiHa, C33A, A2780). To investigate tumor selectivity, the MTT assay was repeated on mouse embryonic fibroblast cells (NIH/3T3) under the same conditions. All cell lines were maintained in minimal essential medium (MEM) supplemented with 10% fetal bovine serum, 1% nonessential amino acids, and 1% penicillin–streptomycin–amphotericin B mixture, and were stored in humidified air containing 5% CO2 at 37 °C. All cell types were seeded into 96–well plates at a density of 5000 with the exception of C33a, which was seeded at a density of 10 000 and treated by increasing concentrations (0.1–30 μM) of the compounds for 72 h under cell culturing conditions. After the incubation, 5 mg/mL MTT [3-(4,5-dimethylthiazol-2-yl)-2,5-diphenyltetrazolium bromide] solution was added to samples for 4 h and precipitated blue formazan crystals were dissolved in DMSO. Absorbance values of the samples were measured at 545 nm using a microplate reader (Stat Fax-2100, Awareness Technologies Inc., Palm City, FL, USA) and untreated cells were used as control. Normalized sigmoidal dose–response curves were fitted to the determined data and the IC50 values were calculated by GraphPad Prism 5.01 (GraphPad Software, San Diego, CA, USA). Cisplatin (Ebewe Pharma GmbH, Unterach, Austria) was used as a reference agent in the same concentration range."}, "T47D cells [2]": {"test_system": "T47D cells", "conditions": "read-out: IC50 value from literature, T47D; cited from earlier work"}, "C33A cells": {"test_system": "C33A cells", "test": "MTT antiproliferative assay on C33A", "format": "cell-based, human", "conditions": "for IC50: MTT, 0.1–30 μM, 72 h, mean ± SEM, read-out: calculated IC50 values, C33A", "method": "as §1, §2, §3"}, "SiHa cells": {"test_system": "SiHa cells", "test": "MTT antiproliferative assay on SiHa", "format": "cell-based, human", "conditions": "for IC50: MTT, 0.1–30 μM, 72 h, mean ± SEM, read-out: calculated IC50 values, SiHa", "method": "as §1, §2, §3"}, "A2780 cells [3]": {"test_system": "A2780 cells", "test": "MTT antiproliferative assay on A2780", "format": "cell-based, human", "conditions": "Homo sapiens, read-out: Growth inhibition (% ± SEM), A2780", "method": "as §1, §2, §3"}, "MCF-7 cells": {"test_system": "MCF-7 cells", "test": "MTT antiproliferative assay on MCF-7", "format": "cell-based, human", "method": "as §1, §2, §3"}, "T47D cells [4]": {"test_system": "T47D cells", "test": "MTT antiproliferative assay on T47D", "format": "cell-based, human", "conditions": "Homo sapiens, T47D, read-out: Growth inhibition (% ± SEM), T47d", "method": "as §1, §2, §3"}, "HeLa cells [5]": {"test_system": "HeLa cells", "conditions": "cited from earlier work"}, "A2780 cells [6]": {"test_system": "A2780 cells", "conditions": "read-out: IC50 value from literature, A2780; cited from earlier work"}, "[7]": {"test_system": "NIH/3T3 mouse embryonic fibroblast cells", "test": "MTT assay for tumor selectivity on NIH/3T3", "format": "cell-based", "conditions": "MTT, 0.1–30 μM, 72 h, mean ± SEM; read-out: calculated IC50 values, NIH/3T3", "method": "as §1, §2, §3"}},
  "note": "Like-named read-outs stand apart in the source and are kept apart here.",
  "data": [
    {"compound": "C=Cc1c(C)c(O)cc2c1CCc1c-2ccc(O)c1C", "note": "[juncuenin B, 1,7-dimethyl-8-vinyl-9,10-dihydrophenanthrene-2,6-diol]", "values": [
      {"measurement": "inhibition at 10 µM", "setting": "HeLa cells [1]; 10 μM", "result": "88.8 ± 1.15", "unit": "%"},
      {"measurement": "inhibition at 30 µM", "setting": "HeLa cells [1]; 30 μM", "result": "93.58 ± 0.41", "unit": "%"},
      {"measurement": "IC50", "setting": "T47D cells [2]", "result": "> 30", "unit": "µM"},
      {"measurement": "inhibition at 10 µM", "setting": "C33A cells; Homo sapiens, C-33-A, 10 μM, read-out: Growth inhibition (% ± SEM), C33a", "result": "27.5 ± 2.45", "unit": "%"},
      {"measurement": "inhibition at 30 µM", "setting": "C33A cells; Homo sapiens, C-33-A, 30 μM, read-out: Growth inhibition (% ± SEM), C33a", "result": "79.33 ± 0.7", "unit": "%"},
      {"measurement": "IC50", "setting": "C33A cells; Homo sapiens, C-33-A", "result": "12.7 ± 1.7", "unit": "µM"},
      {"measurement": "inhibition at 10 µM", "setting": "SiHa cells; Homo sapiens, SiHa, 10 μM, read-out: Growth inhibition (% ± SEM), SiHa", "result": "22.7 ± 2.89", "unit": "%"},
      {"measurement": "inhibition at 30 µM", "setting": "SiHa cells; Homo sapiens, SiHa, 30 μM, read-out: Growth inhibition (% ± SEM), SiHa", "result": "33.1 ± 1.76", "unit": "%"},
      {"measurement": "IC50", "setting": "SiHa cells; Homo sapiens, SiHa", "result": "> 30", "unit": "µM"},
      {"measurement": "inhibition at 10 µM", "setting": "A2780 cells [3]; A2780, 10 μM", "result": "61.2 ± 1.46", "unit": "%"},
      {"measurement": "inhibition at 30 µM", "setting": "A2780 cells [3]; A2780, 30 μM", "result": "85.91 ± 0.62", "unit": "%"},
      {"measurement": "inhibition at 10 µM", "setting": "MCF-7 cells; Homo sapiens, MCF7, 10 μM, read-out: Growth inhibition (% ± SEM), MCF-7", "result": "22.5 ± 2.02", "unit": "%"},
      {"measurement": "inhibition at 30 µM", "setting": "MCF-7 cells; Homo sapiens, MCF7, 30 μM, read-out: Growth inhibition (% ± SEM), MCF-7", "result": "64.9 ± 2.1", "unit": "%"},
      {"measurement": "fold stronger activity on MCF-7 than on T47D cells", "setting": "MCF-7 cells; MCF-7 versus T47D", "result": "approximately 2.5 fold"},
      {"measurement": "inhibition at 10 µM", "setting": "T47D cells [4]; 10 μM", "result": "< 10", "unit": "%"},
      {"measurement": "inhibition at 30 µM", "setting": "T47D cells [4]; 30 μM", "result": "54.2 ± 2.66", "unit": "%"}
    ]},
    {"compound": "C=Cc1c(C)c(O)cc2c1-c1ccc(O)c(C)c1CC2", "note": "[Juncusol]", "values": [
      {"measurement": "cytotoxicity on HeLa cells (in words)", "setting": "HeLa cells [5]", "result": "cytotoxic"}
    ]},
    {"compound": "N.N.[Cl][Pt][Cl]", "note": "[cisplatin, reference compound]", "values": [
      {"measurement": "IC50", "setting": "A2780 cells [6]", "result": 1.3, "unit": "µM"},
      {"measurement": "IC50", "setting": "T47D cells [2]", "result": 9.8, "unit": "µM"},
      {"measurement": "IC50", "setting": "C33A cells", "result": 1.8, "unit": "µM"},
      {"measurement": "IC50", "setting": "SiHa cells", "result": 7.8, "unit": "µM"},
      {"measurement": "IC50", "setting": "[7]", "result": 2.7, "unit": "µM"},
      {"measurement": "IC50", "setting": "MCF-7 cells; MTT, 0.1–30 μM, 72 h, mean ± SEM, read-out: calculated IC50 values, MCF-7", "result": 5.8, "unit": "µM"}
    ]}
  ]
}
